Source: ChEMBL document CHEMBL1201862, “PubChem BioAssay data set” (2004)
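Assay format: 96-well plates, 48-hour exposure. GI50: concentration for 50% inhibition of growth.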 Activity calls are given as the source filed them. Cut-off read from the data, not from the text of the source: active = GI50 up to about 1.1 µM and inactive = higher.

Key:
Experiment in all cases: NCI tumour cell line growth inhibition, 48 h
SK-OV-3 = test system: SK-OV-3
RPMI-8226 = test system: RPMI-8226
U-251 = test system: U-251
UACC-257 = test system: UACC-257
NCI-H226 = test system: NCI-H226
CCRF-CEM = test system: CCRF-CEM
NCI-H23 = test system: NCI-H23
Malme-3M = test system: Malme-3M
A549 = test system: A549
SNB-75 = test system: SNB-75
UACC-62 = test system: UACC-62
SW-620 = test system: SW-620
HT-29 = test system: HT-29
COLO 205 = test system: COLO 205
MOLT-4 = test system: MOLT-4
CAKI-1 = test system: CAKI-1
SK-MEL-28 = test system: SK-MEL-28
HCC 2998 = test system: HCC 2998
A498 = test system: A498
LOX IMVI = test system: LOX IMVI

Row | Structure (SMILES) | GI50 (SK-OV-3) | GI50 (RPMI-8226) | GI50 (U-251) | GI50 (UACC-257) | GI50 (NCI-H226) | GI50 (CCRF-CEM) | GI50 (NCI-H23) | GI50 (Malme-3M) | GI50 (A549) | GI50 (SNB-75) | GI50 (UACC-62) | GI50 (SW-620) | GI50 (HT-29) | GI50 (COLO 205) | GI50 (MOLT-4) | GI50 (CAKI-1) | GI50 (SK-MEL-28) | GI50 (HCC 2998) | GI50 (A498) | GI50 (LOX IMVI)
1 | COC(=O)C1(F)C(=O)NC(=O)NC1O (stereo not given) | > 100 µM (inactive) | > 100 µM (inactive) | > 100 µM (inactive) | > 100 µM (inactive) | > 100 µM (inactive) | > 89.1 µM (inactive) | > 100 µM (inactive) | > 100 µM (inactive) | 90.8 µM (inactive) | > 65 µM (inactive) | > 100 µM (inactive) | > 77.6 µM (inactive) | > 66.5 µM (inactive) | 40.4 µM (inactive) | 31.8 µM (inactive) | 97.9 µM (inactive) | > 100 µM (inactive) | > 45.9 µM (inactive) | > 100 µM (inactive) | > 100 µM (inactive)
2 | COc1ccc(C2c3cc4c(cc3OC(N3CCOCC3)C2C)OCO4)cc1OC (stereo not given) | 5.24 µM (inactive) | 6.18 µM (inactive) | 5.52 µM (inactive) | 16.7 µM (inactive) | 6.9 µM (inactive) | 4.28 µM (inactive) | 20.4 µM (inactive) | 11.1 µM (inactive) | 7.82 µM (inactive) | 2.99 µM (inactive) | 5.48 µM (inactive) | 4.74 µM (inactive) | 4.69 µM (inactive) | 4.76 µM (inactive) | 4.48 µM (inactive) | 3.07 µM (inactive) | > 50.5 µM (inactive) | 5.53 µM (inactive) | 6.46 µM (inactive) | 6.11 µM (inactive)
3 | CC/C=C/C[C@H](O[Si](C)(C)C(C)(C)C)[C@H]1C[C@H]2O[C@H]([C@@H](O)C#C[Si](C)(C)C)C[C@H]2O1 | 15.5 µM (inactive) | 12.9 µM (inactive) | 15.5 µM (inactive) | 9.75 µM (inactive) | 6.68 µM (inactive) | 21.5 µM (inactive) | 12 µM (inactive) | 11.9 µM (inactive) | 10.1 µM (inactive) | 16.3 µM (inactive) | 17.7 µM (inactive) | 16.6 µM (inactive) | 11.9 µM (inactive) | 13.5 µM (inactive) | 12.6 µM (inactive) | 11.3 µM (inactive) | 14.2 µM (inactive) | 15.9 µM (inactive) | 17.9 µM (inactive) | 10.4 µM (inactive)
4 | CC1CCC(=O)C(C(O)CC2CC(=O)N(c3ccccc3)C(=O)C2)C1 (stereo not given) | > 100 µM (inactive) | > 100 µM (inactive) | > 100 µM (inactive) | > 100 µM (inactive) | > 100 µM (inactive) | > 100 µM (inactive) | > 100 µM (inactive) | > 100 µM (inactive) | > 100 µM (inactive) | > 100 µM (inactive) | > 100 µM (inactive) | > 100 µM (inactive) | > 100 µM (inactive) | > 100 µM (inactive) | > 100 µM (inactive) | > 100 µM (inactive) | > 100 µM (inactive) | > 100 µM (inactive) | > 100 µM (inactive) | > 100 µM (inactive)
5 | CC(=O)NC(CCCNC(=O)N(C)N=O)C(=O)NCc1ccccc1 (stereo not given) | > 100 µM (inactive) | > 100 µM (inactive) | > 100 µM (inactive) | > 100 µM (inactive) | > 100 µM (inactive) | > 100 µM (inactive) | > 100 µM (inactive) | > 100 µM (inactive) | > 100 µM (inactive) | 52.1 µM (inactive) | > 100 µM (inactive) | > 100 µM (inactive) | > 100 µM (inactive) | > 100 µM (inactive) | > 100 µM (inactive) | > 100 µM (inactive) | > 100 µM (inactive) | > 100 µM (inactive) | > 100 µM (inactive) | > 100 µM (inactive)
6 | CCC(Sc1cc(Cl)c(C)cc1S(=O)(=O)Nc1nc(N)nc(N(C)C)n1)C(=O)O (stereo not given) | > 10 µM (inactive) | > 10 µM (inactive) | > 10 µM (inactive) | > 10 µM (inactive) | > 10 µM (inactive) | > 10 µM (inactive) | > 10 µM (inactive) | > 10 µM (inactive) | > 10 µM (inactive) | > 10 µM (inactive) |  | > 10 µM (inactive) | > 10 µM (inactive) | > 10 µM (inactive) | > 10 µM (inactive) | > 10 µM (inactive) | > 10 µM (inactive) | > 10 µM (inactive) | > 10 µM (inactive) | > 10 µM (inactive)
7 | CC(=O)C1CC(C)=CCC12C(=O)Nc1ccccc12 (stereo not given) | > 100 µM (inactive) | > 100 µM (inactive) | > 100 µM (inactive) |  | > 100 µM (inactive) | > 100 µM (inactive) | > 100 µM (inactive) | > 100 µM (inactive) | > 100 µM (inactive) | > 100 µM (inactive) | 68.1 µM (inactive) | > 100 µM (inactive) | > 100 µM (inactive) | > 100 µM (inactive) | 43 µM (inactive) | > 100 µM (inactive) | > 100 µM (inactive) | > 100 µM (inactive) | > 100 µM (inactive) | > 100 µM (inactive)
8 | NC(=O)c1ccccc1NC(=O)C(=O)Nc1n[nH]c(N)n1 | > 100 µM (inactive) | > 100 µM (inactive) | > 100 µM (inactive) | > 100 µM (inactive) | > 100 µM (inactive) | > 100 µM (inactive) | > 100 µM (inactive) | > 100 µM (inactive) | > 100 µM (inactive) | > 100 µM (inactive) | > 100 µM (inactive) | > 100 µM (inactive) | > 100 µM (inactive) | > 100 µM (inactive) | > 100 µM (inactive) | > 100 µM (inactive) |  | > 100 µM (inactive) | > 100 µM (inactive) | > 100 µM (inactive)
9 | CCOC(=O)C(SCCO)C(C(=O)OCC)n1ccc(=O)[nH]c1=O (stereo not given) | > 100 µM (inactive) | 17.5 µM (inactive) | 27.6 µM (inactive) | > 63.7 µM (inactive) | > 35.6 µM (inactive) | 1.98 µM (inactive) | 34.3 µM (inactive) | 12.5 µM (inactive) | > 100 µM (inactive) | 25.4 µM (inactive) | 20.4 µM (inactive) | 12.9 µM (inactive) | 23.5 µM (inactive) | 17.6 µM (inactive) | 3.01 µM (inactive) | 7.83 µM (inactive) | 28.8 µM (inactive) | > 71.8 µM (inactive) | 75 µM (inactive) | 14.8 µM (inactive)
10 | C/C(CC(O)(C(F)(F)F)C(F)(F)F)=N/Nc1ccc([N+](=O)[O-])cc1[N+](=O)[O-] | 2.33 µM (inactive) | 1.56 µM (inactive) | 2.67 µM (inactive) | 2.87 µM (inactive) | 2.06 µM (inactive) | 3.41 µM (inactive) | 2.46 µM (inactive) | 2.11 µM (inactive) | 2.54 µM (inactive) | 2.69 µM (inactive) | 3.02 µM (inactive) | 3.44 µM (inactive) | 2.69 µM (inactive) | 2.05 µM (inactive) | 4.4 µM (inactive) | 2.24 µM (inactive) | 3.27 µM (inactive) | 3.6 µM (inactive) | 2.39 µM (inactive) | 3.3 µM (inactive)
11 | CC1OC(n2cc(F)c(=O)[nH]c2=O)CCC1O (stereo not given) | > 100 µM (inactive) | 56.1 µM (inactive) | > 100 µM (inactive) | > 100 µM (inactive) | > 100 µM (inactive) | > 100 µM (inactive) | > 100 µM (inactive) | 99.8 µM (inactive) | 67.5 µM (inactive) | > 72.9 µM (inactive) | > 100 µM (inactive) | > 100 µM (inactive) | 98.9 µM (inactive) | > 87.1 µM (inactive) | > 100 µM (inactive) | > 91.6 µM (inactive) | > 100 µM (inactive) | 30.1 µM (inactive) | > 66.5 µM (inactive) | > 100 µM (inactive)
12 | Cc1nc2ccccc2cc1C[N+]12CN3CN(CN(C3)C1)C2 | 32.7 µM (inactive) | 3.4 µM (inactive) | 12.1 µM (inactive) | 18.4 µM (inactive) | 23.6 µM (inactive) | 0.962 µM (active) | 17.5 µM (inactive) | 17.3 µM (inactive) | 30.8 µM (inactive) | 17.9 µM (inactive) | 17.2 µM (inactive) | 5.35 µM (inactive) | 15.7 µM (inactive) | 14.1 µM (inactive) | 34 µM (inactive) | 27.5 µM (inactive) | 18.7 µM (inactive) | 17.1 µM (inactive) | 22.8 µM (inactive) | 14.7 µM (inactive)
13 | CCCCCCOP(=O)(OCCCCCC)C(NC(=O)OCC)(C(F)(F)F)C(F)(F)F | 29 µM (inactive) | > 100 µM (inactive) | 36.8 µM (inactive) |  | 24.9 µM (inactive) | 42.1 µM (inactive) |  | 34.4 µM (inactive) | 36.9 µM (inactive) | 64.3 µM (inactive) | 41.6 µM (inactive) | 33.3 µM (inactive) | 51.4 µM (inactive) | 16.6 µM (inactive) | > 100 µM (inactive) | 51.6 µM (inactive) | 41.9 µM (inactive) | > 10 µM (inactive) | > 100 µM (inactive) | 24.6 µM (inactive)
14 | COc1ccc(-c2oc3cc(-c4cc5oc(-c6ccc(OC)cc6)c(-c6ccc(OC)cc6)c5cc4OC)c(OC)cc3c2-c2ccc(OC)cc2)cc1 | > 100 µM (inactive) | > 100 µM (inactive) | > 100 µM (inactive) | > 100 µM (inactive) | > 100 µM (inactive) | > 100 µM (inactive) | > 100 µM (inactive) | > 100 µM (inactive) | > 100 µM (inactive) | > 100 µM (inactive) | > 100 µM (inactive) | > 100 µM (inactive) | > 100 µM (inactive) | > 100 µM (inactive) | > 100 µM (inactive) | > 100 µM (inactive) | > 100 µM (inactive) | > 100 µM (inactive) | > 100 µM (inactive) | > 100 µM (inactive)
